Test results published in ChEMBL document CHEMBL2028040, “Malaria Box”.

Tests used:
Leishmania infantum = test: MMV: Inhibition of Leishmania infantum (MHOM/MA/BE/67) in vitro.; type: functional, organism-based
Plasmodium falciparum [1] = test: MMV: Inhibition of Plasmodium falciparum 3D7 (EC50).; type: functional, organism-based
[2] = MMV: Cytotoxicity against human fibroblasts (MRC-5) cells.; settings: MRC-5 cells (human fibroblasts)
[3] = tested on: Trypanosoma brucei rhodesiense; test: MMV: Inhibition of Trypanosoma brucei rhodesiense (STIB 900) (HAT in vitro).; type: functional, organism-based
[4] = tested on: Trypanosoma brucei brucei; test: MMV: Inhibition of Trypanosoma brucei brucei (Squib 427) (HAT in vitro).; type: functional, organism-based
Plasmodium falciparum [5] = test: MMV: Inhibition of Plasmodium falciparum 3D7 at 5uM compound concentration.; type: functional
Plasmodium falciparum [6] = test: MMV: Inhibition of Plasmodium falciparum K1 (EC50).; type: functional, organism-based
Trypanosoma cruzi = test: MMV: Inhibition of Trypanosoma cruzi (Tulahuen C4 LacZ) (Chagas in vitro).; type: functional, organism-based

SMILES	IC50 (Leishmania infantum)	EC50 (Plasmodium falciparum [1])	IC50 [2]	IC50 [3]	IC50 [4]	inhibition at 5 µM (Plasmodium falciparum [5])	EC50 (Plasmodium falciparum [6])	IC50 (Trypanosoma cruzi)
c1ccc(/C2=N/c3ccccc3/N=C(/c3ccccc3)c3ccccc32)cc1	16600 nM	662 nM	> 32000 nM	4520 nM	16500 nM	99%	1100 nM	26100 nM
CCC(O)c1ccc(Br)cc1NC(=O)c1cccc(Cl)c1 (stereo not drawn)	> 32000 nM	640 nM	> 32000 nM	4540 nM	15300 nM	97%	419 nM	> 32000 nM
CN1CCN(c2ccc(Nc3c4ccccc4nc4ccccc34)cc2)CC1	4060 nM	142 nM	10900 nM	311 nM	1030 nM	97%	487 nM	1000 nM
COc1ccccc1C(=O)ON=C(N)Cc1cccc2ccccc12	> 32000 nM	814 nM	13900 nM	2900 nM	15000 nM	97%	705 nM	5480 nM
CN1C=C(c2ccc3ccccc3n2)C(c2c[nH]c3ccccc23)c2ccccc21 (stereo not drawn)	16200 nM	552 nM	> 32000 nM	979 nM	3770 nM	95%	1060 nM	934 nM
CCOc1cc2c(cc1OCC)C(c1cc(OC)c(O)cc1Cl)NCC2 (stereo not drawn)	> 32000 nM	370 nM	> 32000 nM	16200 nM	15200 nM	98%	114 nM	14600 nM
CCCCc1c(CCC)c(=N)c2ccccc2n1C	6350 nM	716 nM	19300 nM	3920 nM	4000 nM	77%	1580 nM	375 nM
Cn1c(=O)n(C)c2cc(CNCCNc3ccnc4cc(Cl)ccc34)ccc21	17300 nM	545 nM	> 32000 nM	419 nM	11500 nM	90%	1510 nM	16900 nM
Cc1ccc(F)cc1NC(=O)c1cc(Cl)ccc1Nc1ccccc1	> 32000 nM	539 nM	> 32000 nM	> 32000 nM	> 32000 nM	99%	507 nM	> 32000 nM
CCCCNc1nc(NC(C)(C)C)nc(NC(C)(C)C)n1	2970 nM	706 nM	> 32000 nM	2000 nM	1330 nM	98%	705 nM	9190 nM
CCCCCCc1cc2cc(-c3nc4ccccc4[nH]3)c(=Nc3ccccc3C)oc2cc1O	> 32000 nM	551 nM	> 32000 nM	12800 nM	17000 nM	96%	149 nM	> 32000 nM
OC(CNC1CCCCC1)Cn1c2ccc(I)cc2c2cc(I)ccc21 (stereo not drawn)	1590 nM	466 nM	4030 nM	784 nM	877 nM	97%	298 nM	902 nM
CC(C)(C)c1ccc(O)c(CNC2CCCCC2)c1	16000 nM	161 nM	> 32000 nM	4000 nM	3780 nM	96%	45.8 nM	21200 nM
O=C(Nc1cccc(C2=NCCN2)c1)Nc1cccc(C2=NCCN2)c1 [IMIDOCARB]	> 32000 nM	1010 nM	> 32000 nM	265 nM	19600 nM	83%	1380 nM	> 32000 nM
CC(C)CCNCC(O)Cn1c2ccccc2c2ccccc21 (stereo not drawn)	4000 nM	473 nM	16200 nM	1000 nM	931 nM	97%	210 nM	6730 nM
CCOC(=O)c1c(C)n(-c2ccc(Cl)cc2)c2ccc(OC(=O)C=Cc3ccccc3)cc12	> 32000 nM	216 nM	18500 nM	4320 nM	16100 nM	97%	659 nM	11600 nM
CCCCOC(=O)c1ccc(Nc2cc(C)nc3ccc(OC)cc23)cc1	4760 nM	584 nM	14300 nM	3510 nM	3940 nM	99%	2140 nM	3670 nM
CC1CCN(Cc2ccc(NC(=O)c3cc4ccc5cccnc5c4[nH]3)cc2)CC1	3010 nM	274 nM	1450 nM	861 nM	1410 nM	97%	773 nM	2200 nM

SMILES	IC50 (Leishmania infantum)	EC50 (Plasmodium falciparum [1])	IC50 [2]	IC50 [3]	IC50 [4]	inhibition at 5 µM (Plasmodium falciparum [5])	EC50 (Plasmodium falciparum [6])	IC50 (Trypanosoma cruzi)
O=C(NC1CCN(Cc2ccccc2)CC1)c1cc(C(=O)NC2CCN(Cc3ccccc3)CC2)cc(C(=O)NC2CCN(Cc3ccccc3)CC2)c1	4060 nM	646 nM	> 32000 nM	2840 nM	4060 nM	98%	928 nM	25100 nM
COc1ccc(CN2CCN(Cc3ccccc3)CC2)c(O)c1	> 32000 nM	1080 nM	> 32000 nM	> 32000 nM	> 32000 nM	96%	789 nM	> 32000 nM
CCOC(=O)c1cn(CC)c2cc(N3CCCCC3)c(F)cc2c1=O	> 32000 nM	119 nM	> 32000 nM	> 32000 nM	> 32000 nM	100%	259 nM	> 32000 nM
Clc1cc(Br)ccc1-c1ccc(CNCC2CCNCC2)o1	1000 nM	800 nM	4030 nM	< 125 nM	< 125 nM	96%	1620 nM	1010 nM
Cc1ccccc1OCCSc1nc2ccc(NC(=O)c3cccs3)cc2s1	17300 nM	697 nM	> 32000 nM	2770 nM	3940 nM	96%	1040 nM	4650 nM
CCOc1ccc(/C=C/c2nc(=O)c3ccccc3o2)cc1	> 32000 nM	560 nM	> 32000 nM	30500 nM	> 32000 nM	95%	893 nM	17900 nM
Cc1cc(Nc2ccc(C)c(Cl)c2)n2nc(C(F)(F)F)nc2n1	> 32000 nM	6.71 nM	> 32000 nM	15900 nM	> 32000 nM	98%	14.1 nM	22900 nM
COc1ccc(C2C(C(=O)Nc3cccc(OC)c3)c3ccccc3C(=O)N2C2CCCCC2)cc1 (stereo not drawn)	6350 nM	1180 nM	> 32000 nM	3700 nM	4060 nM	97%	1600 nM	15600 nM
CC(=O)c1sc(NC(=O)Nc2ccc(C)cc2C)nc1C	> 32000 nM	536 nM	> 32000 nM	> 32000 nM	> 32000 nM	64%	502 nM	> 32000 nM
Cc1ccc(C(=O)c2oc3ccc4c(C)cc(=O)oc4c3c2C)cc1	> 32000 nM	906 nM	21200 nM	> 32000 nM	> 32000 nM	96%	1040 nM	> 32000 nM
Oc1c(C(Nc2ccccn2)c2cccc(Oc3ccccc3)c2)ccc2cccnc12 (stereo not drawn)	1000 nM	1010 nM	3890 nM	972 nM	1010 nM	97%	1070 nM	1050 nM
O=C1c2ccc3c4c(ccc(c24)C(=O)N1CCCCO)C(=O)N(CCCCO)C3=O	1010 nM	795 nM	13800 nM	1000 nM	2840 nM	97%	858 nM	2070 nM
Cc1sc2ncnc(Sc3nc4ccccc4[nH]3)c2c1C	> 32000 nM	614 nM	> 32000 nM	> 32000 nM	> 32000 nM	100%	582 nM	> 32000 nM
COc1ccccc1CNC(=O)CCn1c(=O)[nH]c2ccsc2c1=O	> 32000 nM	140 nM	> 32000 nM	> 32000 nM	> 32000 nM	67%	150 nM	> 32000 nM
CCCCCC(=O)N1c2ccccc2N=C2CC(c3ccc(OC)c(OC)c3)CC(O)=C2C1c1ccc(C(F)(F)F)cc1 (stereo not drawn)	25400 nM	237 nM	> 32000 nM	1690 nM	4060 nM	100%	288 nM	12100 nM
Brc1ccc(Nc2nc3ccccc3nc2Nc2ccc(Br)cc2)cc1	4060 nM	1060 nM	5880 nM	1320 nM	4090 nM	98%	497 nM	3520 nM
CC(C)(C)c1ccc(C2CC3=Nc4ccccc4N(C(=O)c4ccccc4Cl)C(c4ccc(F)cc4)C3=C(O)C2)cc1 (stereo not drawn)	17300 nM	946 nM	> 32000 nM	1110 nM	4250 nM	96%	824 nM	> 32000 nM
Cc1ccc(-c2cc3c(nn2)-c2ccccc2C3=O)cc1	> 32000 nM	94.4 nM	> 32000 nM	15000 nM	> 32000 nM	99%	165 nM	> 32000 nM
